According to patent US20120108585A1, “BENZOXAZOLES, BENZTHIAZOLES AND RELATED ANALOGS AS SIRTUIN MODULATORS” (Sirtris Pharmaceuticals, Inc., priority 2008, published 2012):

Target: T1, SIRT1 (Homo sapiens, UniProt Q96EB6)
T1 sequence (Q96EB6 1-747): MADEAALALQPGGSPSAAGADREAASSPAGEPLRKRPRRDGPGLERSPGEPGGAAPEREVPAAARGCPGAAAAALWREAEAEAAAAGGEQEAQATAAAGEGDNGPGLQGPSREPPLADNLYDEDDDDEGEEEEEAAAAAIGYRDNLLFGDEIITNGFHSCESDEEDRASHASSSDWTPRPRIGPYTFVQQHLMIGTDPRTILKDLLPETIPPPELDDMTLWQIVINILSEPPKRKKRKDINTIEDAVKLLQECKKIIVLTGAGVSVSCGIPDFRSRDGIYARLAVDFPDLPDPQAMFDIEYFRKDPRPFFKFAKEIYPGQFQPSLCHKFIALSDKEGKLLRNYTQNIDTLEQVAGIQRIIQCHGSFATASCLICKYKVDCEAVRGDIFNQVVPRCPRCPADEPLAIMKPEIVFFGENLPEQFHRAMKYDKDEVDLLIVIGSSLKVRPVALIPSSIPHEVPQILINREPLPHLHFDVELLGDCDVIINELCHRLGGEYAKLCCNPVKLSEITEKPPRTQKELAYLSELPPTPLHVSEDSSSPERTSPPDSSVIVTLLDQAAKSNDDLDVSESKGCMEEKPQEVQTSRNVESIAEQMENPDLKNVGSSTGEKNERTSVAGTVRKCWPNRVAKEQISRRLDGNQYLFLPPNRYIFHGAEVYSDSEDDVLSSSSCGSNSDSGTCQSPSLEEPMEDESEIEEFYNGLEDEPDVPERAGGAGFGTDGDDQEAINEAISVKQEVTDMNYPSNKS
Assay: mass spectrometry based assay to identify modulators of SIRT1 activity (deacetylation of p53-based acetylated peptide)
Format: biochemical
Settings: SIRT1 activation, 10 nM SIRT1, 0.5 μM peptide substrate, 120 μM βNAD+, 25 minutes at 25° C.; for Emax: 25 min, read-out: % Fold Act. (percent maximum fold activation)
Description: A mass spectrometry based assay was used to identify modulators of SIRT1 activity. The mass spectrometry based assay utilizes a peptide having 20 amino acid residues as follows: Ac-EE-K(biotin)-GQSTSSHSK(Ac)NleSTEG-K(5TMR)-EE-NH2 (SEQ ID NO: 1) wherein K(Ac) is an acetylated lysine residue and Nle is a norleucine. The peptide is labeled with the fluorophore 5TMR (excitation 540 nm/emission 580 nm) at the C-terminus. The sequence of the peptide substrate is based on p53 with several modifications. In addition, the methionine residue naturally present in the sequence was replaced with the norleucine because the methionine may be susceptible to oxidation during synthesis and purification.
The mass spectrometry assay is conducted as follows: 0.5 μM peptide substrate and 120 μM βNAD^+ is incubated with 10 nM SIRT1 for 25 minutes at 25° C. in a reaction buffer (50 mM Tris-acetate pH 8, 137 mM NaCl, 2.7 mM KCl, 1 mM MgCl2, 5 mM DTT, 0.05% BSA). Test compounds may be added to the reaction as described above. The SirT1 gene is cloned into a T7-promoter containing vector and transformed into BL21(DE3). After the 25 minute incubation with SIRT1, 10 μL of 10% formic acid is added to stop the reaction. Reactions are sealed and frozen for later mass spec analysis. Determination of the mass of the substrate peptide allows for precise determination of the degree of acetylation (i.e. starting material) as compared to deacetylated peptide (product).
A control for inhibition of sirtuin activity is conducted by adding 1 μL of 500 mM nicotinamide as a negative control at the start of the reaction (e.g., permits determination of maximum sirtuin inhibition). A control for activation of sirtuin activity is conducted using 10 nM of sirtuin protein, with 1 μL of DMSO in place of compound, to determine the amount of deacetylation of the substrate at a given timepoint within the linear range of the assay. This timepoint is the same as that used for test compounds and, within the linear range, the endpoint represents a change in velocity.
For the above assay, SIRT1 protein was expressed and purified as follows. The SirT1 gene was cloned into a T7-promoter containing vector and transformed into BL21(DE3). The protein was expressed by induction with 1 mM IPTG as an N-terminal His-tag fusion protein at 18° C. overnight and harvested at 30,000×g. Cells were lysed with lysozyme in lysis buffer (50 mM Tris-HCl, 2 mM Tris[2-carboxyethyl]phosphine (TCEP), 10 μM ZnCl2, 200 mM NaCl) and further treated with sonication for 10 min for complete lysis. The protein was purified over a Ni-NTA column (Amersham) and fractions containing pure protein were pooled, concentrated and run over a sizing column (Sephadex S200 26/60 global). The peak containing soluble protein was collected and run on an Ion-exchange column (MonoQ). Gradient elution (200 mM-500 mM NaCl) yielded pure protein. This protein was concentrated and dialyzed against dialysis buffer (20 mM Tris-HCl, 2 mM TCEP) overnight. The protein was aliquoted and frozen at −80° C. until further use.
Sirtuin modulating compounds that activated SIRT1 were identified using the assay described above and are shown below in Table 1. The EC1-5 values for the activating compounds are represented by A (EC1-5<1.0 uM), B (EC1-5 1-25 uM), C (EC1-5>25 uM). The percent maximum fold activation is represented by A (Fold activation>150%) or B (Fold Activation<150%).

| Structure (SMILES) | Emax | EC1.5 |
| --- | --- | --- |
| O=C(Nc1cccc2oc(-c3ccccc3)nc12)c1cscn1 [Compound 100] | < 150% | C (EC1-5>25 uM) |
| O=C(Nc1cccc2oc(-c3cccc(C(F)(F)F)c3)nc12)c1cscn1 [Compound 102] | < 150% | C (EC1-5>25 uM) |
| O=C(Nc1cccc2oc(-c3cccc(OC(F)(F)F)c3)nc12)c1cscn1 [Compound 104, N-(2-(3-(trifluoromethoxy)phenyl)benzo[d]oxazol-4-yl)thiazole-4-carboxamide] | < 150% | C (EC1-5>25 uM) |
| O=C(Nc1ccccn1)c1cccc2nc(-c3cccc(C(F)(F)F)c3)oc12 [Compound 107] | < 150% | C (EC1-5>25 uM) |
| O=C(Nc1ccccn1)c1cccc2nc(-c3ccccc3OC(F)(F)F)oc12 [Compound 118] | > 150% | B (EC1-5 1-25 uM) |
| O=C(Nc1nc(CN2CCOCC2)cs1)c1cccc2nc(-c3ccccc3OC(F)(F)F)oc12 [Compound 119] | > 150% | B (EC1-5 1-25 uM) |
| O=C(Nc1cccc(CN2CCOCC2)n1)c1cccc2nc(-c3ccccc3OC(F)(F)F)oc12 [Compound 120] | > 150% | A (EC1-5<1.0 uM) |
| O=C(Nc1ccccn1)c1cccc2nc(-c3ccccc3C(F)(F)F)oc12 [Compound 122] | > 150% | B (EC1-5 1-25 uM) |
| O=C(Nc1nc(CN2CCOCC2)cs1)c1cccc2nc(-c3ccccc3C(F)(F)F)oc12 [Compound 123] | > 150% | B (EC1-5 1-25 uM) |
| O=C(Nc1cccc(CN2CCOCC2)n1)c1cccc2nc(-c3ccccc3C(F)(F)F)oc12 [Compound 124] | > 150% | A (EC1-5<1.0 uM) |
| O=C(Nc1ccccn1)c1cccc2nc(-c3ccc(F)cc3C(F)(F)F)oc12 [Compound 131] | > 150% | B (EC1-5 1-25 uM) |
| O=C(Nc1nc(CN2CCOCC2)cs1)c1cccc2nc(-c3ccc(F)cc3C(F)(F)F)oc12 [Compound 132] | > 150% | B (EC1-5 1-25 uM) |
| O=C(Nc1cccc(CN2CCOCC2)n1)c1cccc2nc(-c3ccc(F)cc3C(F)(F)F)oc12 [Compound 133] | > 150% | B (EC1-5 1-25 uM) |
| O=C(Nc1ccccn1)c1cccc2nc(-c3cc(F)ccc3C(F)(F)F)oc12 [Compound 134] | < 150% | B (EC1-5 1-25 uM) |
| O=C(Nc1nc(CN2CCOCC2)cs1)c1cccc2nc(-c3cc(F)ccc3C(F)(F)F)oc12 [Compound 135] | > 150% | B (EC1-5 1-25 uM) |
| O=C(Nc1cccc(CN2CCOCC2)n1)c1cccc2nc(-c3cc(F)ccc3C(F)(F)F)oc12 [Compound 136] | > 150% | B (EC1-5 1-25 uM) |
| O=C(Nc1ccccn1)c1cccc2oc(-c3ccccc3C(F)(F)F)nc12 [Compound 138] | > 150% | B (EC1-5 1-25 uM) |
| O=C(Nc1nc(CN2CCOCC2)cs1)c1cccc2oc(-c3ccccc3C(F)(F)F)nc12 [Compound 139] | > 150% | A (EC1-5<1.0 uM) |

Continued, values first:

| Emax | EC1.5 | Structure (SMILES) |
| --- | --- | --- |
| < 150% | C (EC1-5>25 uM) | O=C(Nc1cccc2oc(-c3ccccc3)nc12)c1cnccn1 [Compound 101] |
| < 150% | C (EC1-5>25 uM) | O=C(Nc1cccc2oc(-c3cccc(C(F)(F)F)c3)nc12)c1cnccn1 [Compound 103] |
| < 150% | C (EC1-5>25 uM) | O=C(Nc1cccc2oc(-c3cccc(OC(F)(F)F)c3)nc12)c1cnccn1 [Compound 105] |
| < 150% | C (EC1-5>25 uM) | O=C(Nc1nccs1)c1cccc2nc(-c3cccc(C(F)(F)F)c3)oc12 [Compound 106] |
| > 150% | B (EC1-5 1-25 uM) | O=C(Nc1cccnc1)c1cccc2nc(-c3cccc(C(F)(F)F)c3)oc12 [Compound 108] |
| < 150% | C (EC1-5>25 uM) | O=C(Nc1nccs1)c1ccnc2sc(-c3cccc(C(F)(F)F)c3)nc12 [Compound 109] |
| < 150% | C (EC1-5>25 uM) | O=C(Nc1ccccn1)c1ccnc2sc(-c3cccc(C(F)(F)F)c3)nc12 [Compound 110] |
| < 150% | C (EC1-5>25 uM) | O=C(Nc1nccs1)c1cccc2sc(-c3cccc(C(F)(F)F)c3)nc12 [Compound 111] |
| < 150% | C (EC1-5>25 uM) | O=C(Nc1ccccn1)c1cccc2sc(-c3cccc(C(F)(F)F)c3)nc12 [Compound 112] |
| < 150% | C (EC1-5>25 uM) | O=C(Nc1cccnc1)c1cccc2sc(-c3cccc(C(F)(F)F)c3)nc12 [Compound 113] |
| < 150% | C (EC1-5>25 uM) | O=C(Nc1nccs1)c1cccc2sc(-c3cccc(OC(F)(F)F)c3)nc12 [Compound 114] |
| < 150% | C (EC1-5>25 uM) | O=C(Nc1ccccn1)c1cccc2sc(-c3cccc(OC(F)(F)F)c3)nc12 [Compound 115] |
| < 150% | C (EC1-5>25 uM) | O=C(Nc1cccnc1)c1cccc2sc(-c3cccc(OC(F)(F)F)c3)nc12 [Compound 116] |
| < 150% | B (EC1-5 1-25 uM) | O=C(Nc1nccs1)c1cccc2nc(-c3ccccc3OC(F)(F)F)oc12 [Compound 117] |
| > 150% | B (EC1-5 1-25 uM) | O=C(Nc1nccs1)c1cccc2nc(-c3ccccc3C(F)(F)F)oc12 [Compound 121] |
| < 150% | C (EC1-5>25 uM) | O=C(Nc1nccs1)c1cccc2sc(-c3cccc(N4CCOCC4)c3)nc12 [Compound 125] |
| < 150% | C (EC1-5>25 uM) | O=C(Nc1ccccn1)c1cccc2sc(-c3cccc(N4CCOCC4)c3)nc12 [Compound 126] |
| < 150% | C (EC1-5>25 uM) | O=C(Nc1cccnc1)c1cccc2sc(-c3cccc(N4CCOCC4)c3)nc12 [Compound 127] |
| < 150% | C (EC1-5>25 uM) | O=C(Nc1nccs1)c1cccc2sc(-c3cccnc3)nc12 [Compound 128] |
| < 150% | C (EC1-5>25 uM) | O=C(Nc1ccccn1)c1cccc2sc(-c3cccnc3)nc12 [Compound 129] |
| < 150% | B (EC1-5 1-25 uM) | O=C(Nc1nccs1)c1cccc2nc(-c3ccc(F)cc3C(F)(F)F)oc12 [Compound 130] |
| > 150% | B (EC1-5 1-25 uM) | O=C(Nc1nccs1)c1cccc2oc(-c3ccccc3C(F)(F)F)nc12 [Compound 137, N-(thiazol-2-yl)-2-(2-(trifluoromethyl)phenyl)benzo[d]oxazole-4-carboxamide] |
